In data set [1] the test system is different mosquito species larvae. The conditions noted are these: cited from earlier work.
In data set [2] the test system is octopamine sensitive adenylate cyclase, whole body homogenate from third instar A. aegypti larvae. Kind of data set: Determination of cyclic AMP level (octopamine sensitive adenylate cyclase activity). Type of data set: biochemical, Aedes aegypti. To be noted: 100 μM test compound; octopamine 100 μM alone as comparator. Here is the method: The in vitro octopamine sensitive adenylate cyclase activity was investigated according to the modified method of Pratt and Pryor [35]. The whole bodies of 75 third instar A. aegypti larvae (106.2 mg) were homogenized in 500 μL of 2 mM Tris-maleate buffer (pH 7.4) containing 0.8 mM ethylene glycol tetraacetic acid (EGTA). Adenylate cyclase activity was measured using a cAMP Biotrak Enzyme immunoassay system according to the manufacturer’s instructions. The assay was conducted in a total volume of 100 μL containing 80 mM Tris-maleate buffer, 5 mM theophylline (to inhibit phosphodiesterase activity), 2 mM MgSO4, 0.5 mM adenosine triphosphate (ATP), 0.2 mM EGTA, 50 μL of whole body homogenate (equivalent to 4.22 μg protein), and 1 μL of the test compounds in Tris-maleate buffer containing 0.2% ethanol. After incubation for 5 min at 20°C, the reaction was initiated by the addition of ATP. Incubation was carried out at 30°C for 3 min in a shaking water bath. The reaction was terminated by boiling for 2 min, and then the assay tube was cooled and centrifuged for 10 min at 8000 g. The 50 μL aliquots of the supernatant were assayed for cAMP level.
The polystyrene microplates (1 strip of 8 wells) coated with a goat anti-mouse polyclonal antibody were used. Fifty microliters of primary antibody (mouse monoclonal antibody) solution was added to each well except the blank wells (or the nonspecific binding (NSB) wells). The wells covered with the adhesive strip were incubated for 1 h at 25°C in a shaking incubator (480 rpm), followed by four times washing steps, each with 400 μL of wash buffer. The 50 μL of the test samples for cAMP determination and cAMP standard were added to wells. Control, blank (NSB), and zero standard wells were added with 50 μL of the diluent RD5-55 buffer. The 50 μL of cAMP conjugate (horseradish peroxidase-labeled cAMP) was then added to wells. The plate covered with a new adhesive strip was incubated for 2 h at 25°C on the shaker, followed by the four times washing steps. Then, 200 μL of substrate solution (equal volume of stabilized hydrogen peroxide and stabilized chromogen) was added to each well, and the test plate was incubated for 30 min at 25°C on the benchtop in darkness. Finally, the reaction was stopped by adding 100 μL of stop solution (2 N sulfuric acid) to each well. Optical densities at 450 and 540 nm were measured using the VersaMax microplate reader. The readings at 540 nm were subtracted from the readings at 450 nm. The cAMP concentrations were expressed as nmol/μg protein. Results were expressed as mean ± SE of duplicate samples of three independent experiments.

For data set [3], the system named is third instar Aedes aegypti larvae. Kind of data set: direct-contact mortality bioassay. To be noted: for LC50: Aedes aegypti, 24 h, read-out: LC50, mg/L (95% CL). Here is the method: (§1) A direct-contact mortality bioassay was used to evaluate the toxicity of all compounds to third instar larvae from the susceptible and wild mosquito populations. Each compound in acetone (for karanjin) or methanol (for the other compounds) was suspended in distilled water with Triton X-100 (20 μL/L). Groups of 20 mosquito larvae were separately put into paper cups (270 mL) containing each test compound solution (250 mL). The OPs temephos and fenthion served as positive controls and were similarly formulated. Negative controls consisted of the acetone– or methanol–Triton X-100 solution in distilled water. […] Treated and control (acetone– or methanol–Triton X-100 solution only) larvae were held under the same conditions as those used for colony maintenance. […] All treatments were replicated three times using 20 larvae per replicate.
(§2) In separate experiments, the efficacy of the 12 experimental liquid formulations was evaluated, as stated previously. Groups of 20 mosquito larvae were separately put into paper cups containing each test solution. Temephos 200 g/L EC served as a positive control. Negative controls consisted of the ethoxylated castor oil + polyoxyethylene dodecyl mono ether solution in distilled water or water. Mortalities were recorded, as stated previously. All treatments were replicated three times using 20 larvae per replicate.
(§3) Data were corrected for control mortality using Abbott’s formula [36]. The percentages of mortality were transformed to arcsine square-root values for analysis of variance (ANOVA). […] IC50 values and cAMP levels were subjected to ANOVA. The Bonferroni multiple-comparison method was used for comparison of means. Means ± SE of untransformed data are reported. Concentration–mortality data were subjected to probit analysis.

The test system of data set [4] is third instar Culex pipiens pallens larvae. Kind of data set: direct-contact mortality bioassay. The conditions noted are these: for LC50: Culex pipiens, 24 h, read-out: LC50, mg/L (95% CL). Here is the method: as §1, §2, §3
The subject of data set [5] is third instar larvae from wild Aedes albopictus. Kind of data set: direct-contact mortality bioassay. To be noted: for LC50: Aedes albopictus, 24 h, read-out: LC50, mg/L (95% CL). As to the method:
as §1, §2, §3

≈ marks a conversion by molar mass, not a printed value. Read-outs that look alike come from different tables or passages of the source.

As for `CCCCOCc1ccc(O)cc1` [4-butoxymethylphenol], the LC50 in data set [1] (phenol) is 0.05 µg/mL (≈ 0.277 µM).
Consider `CCCCCCCCCCCCCCCCCCCC(=O)O` [Arachidic acid, arachidic acid], for which the “cAMP level compared with that induced by octopamine” value in data set [2] is given as “significantly higher than that induced by octopamine”.
Regarding `CCCCCCCCCCCCCCCCCCCCCC(=O)O` [Behenic acid, behenic acid], the LC50 in data set [3] was 86.8 mg/L (≈ 255 µM); in data set [4], 68.8 mg/L (≈ 202 µM); in data set [5] it was 105 mg/L (≈ 309 µM). The “cAMP level compared with that induced by octopamine” value in data set [2] is “significantly higher than that induced by octopamine”.
For the compound `CCCCCCCC/C=C/CCCCCCCC(=O)O` [Elaidic acid, elaidic acid], the LC50 was found to be 32.2 mg/L (≈ 114 µM) in data set [3], 28.2 mg/L (≈ 99.9 µM) in data set [4] and 66.3 mg/L (≈ 235 µM) in data set [5]. For the same compound, the “cAMP level compared with that induced by octopamine” value in data set [2] is recorded as “significantly higher than that induced by octopamine”.
Turning to `CCCCC/C=C\C/C=C\CCCCCCCC(=O)OCC` [Ethyl linoleate, ethyl linoleate], the LC50 in data set [3], in data set [4] and in data set [5] was more than 200 mg/L in each case.
`CCCCCCCC/C=C\CCCCCCCC(=O)OCC` [Ethyl oleate, ethyl oleate]: the LC50 in data set [3], in data set [4] and in data set [5] was more than 200 mg/L throughout.
Consider `COP(=S)(OC)Oc1ccc(SC)c(C)c1` [Fenthion, fenthion, reference compound], for which the results for the LC50 in data set [3], in data set [4] and in data set [5] were 0.022 mg/L (≈ 0.079 µM), 0.027 mg/L (≈ 0.097 µM) and 0.033 mg/L (≈ 0.119 µM), respectively.
As for `COc1c(-c2ccccc2)oc2c3c(ccc2c1=O)OC(C)(C)C=C3` [Karanjachromene (2), karanjachromene], the LC50 in data set [3] is 20.6 mg/L (≈ 61.5 µM); in data set [4], 18.7 mg/L (≈ 56 µM); in data set [5], 53 mg/L (≈ 158 µM).
With `COc1c(-c2ccccc2)oc2c(ccc3occc32)c1=O` [Karanjin (1), karanjin], the LC50 in data set [3] was found to be 16.1 mg/L (≈ 55.2 µM); in data set [4] it was 14.6 mg/L (≈ 50 µM); in data set [5] it was 35.3 mg/L (≈ 121 µM).
For the compound `CCCCC/C=C\C/C=C\CCCCCCCC(=O)O` [Linoleic acid, linoleic acid], the results for the LC50 in data set [3], in data set [4] and in data set [5] were 21.3 mg/L (≈ 75.9 µM), 20.1 mg/L (≈ 71.8 µM) and 68.9 mg/L (≈ 246 µM), respectively. For the same compound, in data set [2], the “cAMP level compared with that induced by octopamine” value was “significantly higher than that induced by octopamine”.
Take `CC/C=C\C/C=C\C/C=C\CCCCCCCC(=O)O` [Linolenic acid, linolenic acid]: the LC50 was 22.6 mg/L (≈ 81.1 µM) in data set [3], 21.3 mg/L (≈ 76.6 µM) in data set [4] and 71.3 mg/L (≈ 256 µM) in data set [5]. The “cAMP level compared with that induced by octopamine” value in data set [2] is “significantly higher than that induced by octopamine”.
As for `CCCCC/C=C\C/C=C\CCCCCCCC(=O)OC` [Methyl linoleate, methyl linoleate], the LC50 in data set [3], in data set [4] and in data set [5] was more than 200 mg/L each time.
`CCCCCCCC/C=C\CCCCCCCC(=O)OC` [Methyl oleate, methyl oleate]: the LC50 in data set [3], in data set [4] and in data set [5] was more than 200 mg/L throughout.
Consider `CCCCCCCC/C=C\CCCCCCCC(=O)O` [Oleic acid (3), oleic acid], for which the LC50 amounted to 18.4 mg/L (≈ 65.3 µM) in data set [3], 18.1 mg/L (≈ 64 µM) in data set [4] and 18.8 mg/L (≈ 66.5 µM) in data set [5]. For the same compound, in data set [2], the “cAMP level compared with that induced by octopamine” value is reported as “significantly lower than that induced by octopamine”.
Consider `O=c1c2c(oc3c1ccc1occc13)COc1ccccc1-2` [Pongarotene (6), pongarotene], for which the values for the LC50 in data set [3], in data set [4] and in data set [5] were 37.6 mg/L (≈ 130 µM), 25.5 mg/L (≈ 87.9 µM) and 65 mg/L (≈ 224 µM), respectively.
For `CCCCCCCCCCCCCCCCCC(=O)O` [Stearic acid, stearic acid], the LC50 in data set [3], in data set [4] and in data set [5] was more than 200 mg/L in each case.
Take `COP(=S)(OC)Oc1ccc(Sc2ccc(OP(=S)(OC)OC)cc2)cc1` [Temephos, temephos, reference compound]: the figures for the LC50 in data set [3], in data set [4] and in data set [5] were 0.015 mg/L (≈ 0.0322 µM), 0.013 mg/L (≈ 0.0279 µM) and 0.01 mg/L (≈ 0.0214 µM), respectively.
Turning to `CC#CC#CC(=O)c1ccccc1` [capillin], in data set [1] (polyacetylene), the LC50 was less than 10 µg/mL.
In the case of `C/C=C/c1ccc2c(c1)[C@@H](C)[C@H](c1ccc(O)cc1)O2` [conocarpan], the LC50 in data set [1] (neolignans) was less than 10 µg/mL.
In the case of `N#C[C@@H](O[C@@H]1O[C@H](CO)[C@@H](O)[C@H](O)[C@H]1O)c1ccc(O)cc1` [dhurrin], the LC50 in data set [1] (cyanogenic glycoside) was 1.12 µg/mL (≈ 3.6 µM).
Turning to `CCOC(=O)/C=C/c1ccccc1` [ethyl cinnamate], the LC50 in data set [1] (phenylpropanoids) was 12.3 µg/mL (≈ 69.8 µM).
For `CCOC(=O)C=Cc1ccc(OC)cc1` [ethyl p-methoxycinnamate], the LC50 in data set [1] (phenylpropanoids) was 20.7 µg/mL (≈ 100 µM).
For the compound `C/C=C/c1ccc2oc(-c3ccc(O)cc3)c(C)c2c1` [eupomatenoid-6], the LC50 in data set [1] (neolignans) was less than 10 µg/mL.
In the case of `C=C[C@@H](O)C#CC#C[C@@H](O)/C=C\CCCCCCC` [falcarindiol], the LC50 in data set [1] (acetylenic alcohols) was 6.51 µg/mL (≈ 25 µM).
For `C=C[C@H](O)C#CC#CC/C=C\CCCCCCC` [falcarinol], the LC50 in data set [1] (acetylenic alcohols) was 3.49 µg/mL (≈ 14.3 µM).
With `O=C1C=CC[C@H](/C=C/c2ccccc2)O1` [goniothalmin], the LC50 in data set [1] (lactone) was 0.87 to 25.95 µg/mL.
For the compound `CC(C)=CCOc1c2occc2cc2ccc(=O)oc12` [imperatorin], in data set [1] (coumarins), the LC50 was 2.88 µg/mL (≈ 10.7 µM).
On to `C=C1CC[C@H]2C(C)(C)CCC[C@]2(C)[C@H]1C/C=C(/C=O)CC=O` [labda-8(17)-diene-15,16-dial], for which the LC50 in data set [1] (terpenoid) is less than 10 µg/mL.
On to `COc1ccc2ccc(=O)oc2c1CC=C(C)C` [osthole], for which, in data set [1] (coumarins), the LC50 is 3.14 µg/mL (≈ 12.9 µM).
Take `COC1=C[C@@H](C)[C@@H]2C[C@H]3OC(=O)C[C@H]4C(C)=C(OC)C(=O)[C@H]([C@@]2(C)C1=O)[C@@]34C` [quassin]: the LC50 in data set [1] (terpenoid) is 6.0 µg/mL (≈ 15.4 µM).
For `C/C=C/c1cc(OC)c(OC)cc1OC` [α-asarone], in data set [1] (phenylpropanoids), the LC50 is 26.99 µg/mL (≈ 130 µM).
For the compound eupomatenoid-5, the LC50 in data set [1] (neolignans) is less than 10 µg/mL.
In the case of piperonaline, in data set [1] (alkaloid), the LC50 is 0.21 to 0.25 µg/mL.
For pongamol [Pongamol (5)], the “LC50, mg/L (95% CL)” value is on record as 25.76 (22.44–29.35) mg/L in data set [3] (compounds, third instar Aedes aegypti larvae, 24 h exposure); 23.95 (20.68–27.34) mg/L in data set [4] (compounds, third instar Culex pipiens pallens larvae, 24 h exposure); 56.14 (49.50–64.69) mg/L in data set [5] (compounds, third instar larvae from wild Aedes albopictus, 24 h exposure).

These data come from paper PMC4410478, “Larvicidal activity and possible mode of action of four flavonoids and two fatty acids identified in Millettia pinnata seed toward three mosquito species” (Parasites & Vectors, 2015).
